According to US10729710B2, “Catecholamine prodrugs for use in the treatment of Parkinson's disease” (H. Lundbeck A/S, priority 2017, dated 2020):
Counter-ions that a name gives are not always drawn.

Experiments:
human 5-HT2B receptor = human 5-HT2B receptor (Homo sapiens (Human), UniProt P41595); assay: 5-HT2B radioligand binding assay ([125I](±)DOI); conditions: 0.2 nM [125I](±)DOI, read-out: 5-HT2B binding affinity (% inhibition of control, specific binding at concentration indicated)
Method: Membrane homogenates prepared from CHO cells expressing the human 5HT2B receptor were incubated for 60 min at room temperature with 0.2 nM [125I](±)DOI (1-(4-iodo-2, 5-dimethoxyphenyl)propan-2-amine) in the absence or presence of the test compound in a buffer containing 50 mM Tris-HCl (pH 7.4), 5 mM MgCl2, 10 μM pargyline and 0.1% ascorbic acid. Nonspecific binding is determined in the presence of 1 μM (±)DOI. Following incubation, the samples were filtered rapidly under vacuum through glass fiber filters (GF/B, Packard) presoaked with 0.3% polyethyleneimine (PEI) and rinsed several times with ice-cold 50 mM Tris-HCl using a 96-sample cell harvester (Unifilter, Packard). The filters were dried and counted for radioactivity in a scintillation counter (Topcount, Packard) using a scintillation cocktail (Microscint 0, Packard). The results are expressed as a percent inhibition of the control radioligand specific binding. The standard reference compound was (±)DOI, which was tested in each experiment at several concentrations to obtain a competition curve from which its IC50 is calculated.

[1] = PK experiments in rats: plasma compound (I) after oral dosing of prodrugs; type: in vivo, Han Wistar rats; conditions: Wistar rats, FIG. 2, doses equal to 287 μg/kg of compound (I)
Method: Plasma was placed on water-ice following collection. Final storage at approximately −70° C.
Mobile phase B: Acetonitrile. […] Flow rate 0.5 mL/min.
The rats had unrestricted access to the diet.
Mobile phase B: Acetonitrile+0.2% formic acid. […] Flow rate 0.3 mL/min.
Han Wistar rats were supplied by Envigo, UK. […] The rats received a standard laboratory diet Teklad 2014C. The rats had unrestricted access to the diet.

hepatocytes from human = assay: Conversion to compound (I) in human hepatocytes; type: in vitro ADME; conditions: 1 μg/mL, 37° C., 0.25-60 minutes, FIG. 7b
Outline: (§1)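 Hepatocyte suspensions (1×10^6 viable cells/mL) were incubated in duplicate with test item at 37° C., 0.1% DMSO final. Samples taken at 0.25, 5, 15, 30 and 60 min were stabilised with ice-cold ascorbic acid, saccharic acid 1.4-lactone/citric acid and formic acid. Formed (I) was quantified by LC-MS/MS (MRM) against analytical standards.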

human D2 receptor = human D2 receptor (Homo sapiens (Human), UniProt P14416); assay: Dopamine D2 receptor agonism, calcium mobilization assay; type: cell-based; conditions: for Emax: normalized to 1 μM dopamine = 100%
human D2 receptor, sequence (P14416 whole entry): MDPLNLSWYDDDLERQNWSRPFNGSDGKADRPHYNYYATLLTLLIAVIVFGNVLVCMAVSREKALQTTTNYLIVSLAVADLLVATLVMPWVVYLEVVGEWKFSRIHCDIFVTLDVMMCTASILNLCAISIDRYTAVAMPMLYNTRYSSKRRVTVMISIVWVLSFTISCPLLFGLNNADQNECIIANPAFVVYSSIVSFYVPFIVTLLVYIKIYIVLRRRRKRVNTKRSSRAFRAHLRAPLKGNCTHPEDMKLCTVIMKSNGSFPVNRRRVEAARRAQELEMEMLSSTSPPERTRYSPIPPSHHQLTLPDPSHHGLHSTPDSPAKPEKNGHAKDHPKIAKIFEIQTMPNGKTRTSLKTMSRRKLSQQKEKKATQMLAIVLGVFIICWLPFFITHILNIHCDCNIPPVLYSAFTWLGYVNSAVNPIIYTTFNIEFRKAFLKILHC
Method: Dopamine D2 receptor agonism was measured using a calcium mobilization assay protocol developed by HD Biosciences (China). Briefly, HEK293/G15 cells expressing human D2 receptor were plated at a density of 15000 cells/well in clear-bottomed, Matrigel-coated 384-well plates and grown for 24 hrs at 37° C. in the presence of 5% CO2. The cells were incubated with calcium-sensitive fluorescent dye, Fluo8, for 60-90 minutes at 37° C. in the dark. Test compounds were prepared at 3-fold concentrated solution in 1×HBSS buffer with Ca^2+ and Mg^2+. Calcium Flux signal was immediately recorded after compounds were added from compound plate to cell plate at FLIPR (Molecular Devices). The fluorescence data were normalized to yield responses for no stimulation (buffer) and full stimulation (1 μM of dopamine) of 0% and 100% stimulation, respectively. Test compound potency (EC50) was estimated by nonlinear regression using the sigmoidal dose-response (variable slope) using Xlfit 4 (IDBS, Guildford, Surrey, UK, model 205). y=(A+((B−A)/(1+((C/x)^D)))) where y is the normalized ratio measurement for a given concentration of test compound, x is the concentration of test compound, A is the estimated efficacy at infinite compound dilution, and B is the maximal efficacy. C is the EC50 value and D is the Hill slope coefficient. EC50 estimates were obtained from independent experiment and the logarithmic average was calculated.

hepatocytes from rat = assay: Conversion to compound (I) in rat hepatocytes; type: in vitro ADME; conditions: 1 μg/mL, 37° C., 0.25-60 minutes, FIG. 7a
Outline: as §1

[2] = Conversion to compound (I) in fresh human blood; type: in vitro ADME; conditions: fresh blood 37° C., 1 μg/mL, 0-60 minutes, FIG. 8b
Method: Conversion of (Id-ia), (Id-ib), (Id-iia) and (Id-iib) in human blood (average of 3 donors) and rat blood (average of 45 donors) to (I) was shown in fresh blood at 37° C. spiked with 1 μg/mL of (Id-ia), (Id-ib), (Id-iia) and (Id-iib) separately, (I) was measured at 0, 5, 15, 30 and 60 minutes in isolated plasma. Analysis method and Instrumentation as described in Examples 4 and 5 below in the section “Instrumentation used for analysis of compound (I) from dosing of compounds (Ic), (Id-ia), (Id-ib), (Id-iia), (Id-iib), (Id-iab) and (Id-iiab).”

human 5-HT2B receptor, sequence (P41595 whole entry): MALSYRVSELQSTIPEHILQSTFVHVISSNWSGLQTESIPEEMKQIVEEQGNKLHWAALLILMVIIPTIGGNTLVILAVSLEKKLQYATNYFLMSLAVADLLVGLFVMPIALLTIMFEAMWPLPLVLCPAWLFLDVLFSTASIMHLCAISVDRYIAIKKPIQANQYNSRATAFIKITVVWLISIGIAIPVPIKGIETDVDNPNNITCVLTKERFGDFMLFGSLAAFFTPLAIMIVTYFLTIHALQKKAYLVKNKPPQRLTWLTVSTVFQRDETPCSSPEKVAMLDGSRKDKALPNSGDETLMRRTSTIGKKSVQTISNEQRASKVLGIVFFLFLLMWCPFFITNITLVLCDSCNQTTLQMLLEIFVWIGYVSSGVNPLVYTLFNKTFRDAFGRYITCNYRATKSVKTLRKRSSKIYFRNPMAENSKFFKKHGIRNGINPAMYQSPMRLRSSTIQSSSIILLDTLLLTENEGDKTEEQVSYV

Compound | inhibition at 10 µM (human 5-HT2B receptor) [%] | plasma profile of compound (I) after oral dosing (in words) [1] | conversion to compound (I) in human hepatocytes (hepatocytes from human) | Emax (human D2 receptor) [%] | conversion to compound (I) in rat hepatocytes (hepatocytes from rat) | conversion to compound (I) in human blood [2] | EC50 (human D2 receptor; HEK293/G15 cells expressing human D2 receptor, calcium flux) [µM]
CCCN1CCC[C@@H]2Cc3c(ccc(O)c3O[C@@H]3O[C@H](C(=O)O)[C@@H](O)[C@H](O)[C@H]3O)C[C@H]21 [(Id-ia), (2S,3S,4S,5R,6S)-3,4,5-trihydroxy-6-(((4aR,10aR)-7-hydroxy-1-propyl-1,2,3,4,4a,5,10,10a-octahydrobenzo[g]quinolin-6-yl)oxy)tetrahydro-2H-pyran-2-carboxylic acid] | -25 | slower absorption rate avoiding rapid peak concentrations accompanied by a sustained exposure of compound (I) in plasma | time dependent conversion to compound (I) | 92 | time dependent conversion to compound (I) | time dependent conversion to compound (I) | –
CCCN1CCC[C@@H]2Cc3c(ccc(O)c3OS(=O)(=O)O)C[C@H]21 [(Id-iia), (4aR,10aR)-7-hydroxy-1-propyl-1,2,3,4,4a,5,10,10a-octahydrobenzo[g]quinolin-6-yl hydrogen sulfate] | 6 | slower absorption rate avoiding rapid peak concentrations accompanied by a sustained exposure of compound (I) in plasma | time dependent conversion to compound (I) | 48 | time dependent conversion to compound (I) | time dependent conversion to compound (I) | > 30
